Laboratory results reported in US11911434B2, “Stable antibody-drug conjugate, preparation method therefor, and use thereof” (GENEQUANTUM HEALTHCARE (SUZHOU) CO., LTD., priority 2014, dated 2024).

Tests used:
[1] = test system: MDA-MB-468 cells; assay: Tumor cell proliferation, CellTiter Glo, MDA-MB-468; assay type: cell-based, human; conditions: MDA-MB-468, 48-96 h; read-out: Inhibition effects on tumor cell proliferation (IC50)
Procedure: (§1) 1) ErbB2/Her2 low expressing human breast cancer cells MCF-7, MDA-MB-468, ErbB2/Her2 high expressing human breast cancer cells BT-474, SK-BR-3, HCC1954, human ovarian cancer cells SK-OV-3, human gastric cancer cell NCI-N87 was seeded into a 96-well plate at 100 μl/well (containing 1000 to 10000 cells), and incubated in a cell culture incubator overnight (37° C., 5% CO2, 95% air, 100% humidity).
(§2) 3) The cell plate was removed from the incubator, equilibrated for about 30 minutes to room temperature. Each well was added 100 μl CellTiter Glo reagent, shocked in an oscillator for 2 min, then left stand for 10 min at room temperature in dark, the relative light units (RLU) is measured with a BioTech Gen5 microplate reader.

[2] = test system: HCC-1954 cells; assay: Tumor cell proliferation, CellTiter Glo, HCC1954; assay type: cell-based, human; conditions: HCC-1954, 48-96 h; read-out: Inhibition effects on tumor cell proliferation (IC50)
Procedure: as §1, §2

[3] = test system: SK-OV-3 cells; assay: Tumor cell proliferation, CellTiter Glo, SK-OV-3; assay type: cell-based, human; conditions: SK-OV-3, 48-96 h; read-out: Inhibition effects on tumor cell proliferation (IC50)
Procedure: as §1, §2

[4] = test system: NCI-N87 cells; assay: Tumor cell proliferation, CellTiter Glo, NCI-N87; assay type: cell-based, human; conditions: NCI-N87, 48-96 h; read-out: Inhibition effects on tumor cell proliferation (IC50)
Procedure: as §1, §2

[5] = test system: cells with high ErbB2/Her2 expression (BT-474, SK-BR-3, HCC1954, SK-OV-3, NCI-N87); assay: Tumor cell proliferation, cells with high ErbB2/Her2 expression; assay type: cell-based, human; conditions: 0.005-30 nM
Procedure: as §1, §2

[6] = test system: BT-474 cells; assay: Tumor cell proliferation, CellTiter Glo, BT-474; assay type: cell-based, human; conditions: BT-474, 48-96 h; read-out: Inhibition effects on tumor cell proliferation (IC50)
Procedure: as §1, §2

[7] = test system: MCF-7 cells; assay: Tumor cell proliferation, CellTiter Glo, MCF-7; assay type: cell-based, human; conditions: MCF-7, 48-96 h; read-out: Inhibition effects on tumor cell proliferation (IC50)
Procedure: as §1, §2

[8] = test system: cells with low ErbB2/Her2 expression (MCF-7, MDA-MB-468); assay: Tumor cell proliferation, cells with low ErbB2/Her2 expression; assay type: cell-based, human; conditions: 0.005-30 nM
Procedure: as §1, §2

[9] = test system: SK-BR-3 cells; assay: Tumor cell proliferation, CellTiter Glo, SK-BR-3; assay type: cell-based, human; conditions: SK-BR-3, 48-96 h; read-out: Inhibition effects on tumor cell proliferation (IC50)
Procedure: as §1, §2

[10] = test system: HCC1954 xenograft; assay: HCC1954 xenograft in nude mice; assay type: in vivo, BALB/c nude mouse; conditions: 5 mg/kg
Procedure: The in vivo anti-tumor effect of the candidate ADC was determined using xenograft model of nude mice after administration of the candidate ADC.
1) HCC1954 breast cancer cells in the logarithmic growth phase were collected and adjusted with matrigel buffer (PBS: BD Matrigel=1:1) to a cell density of 2.5×10^7/ml. 0.2 ml of this prepared HCC1954 cell suspension was injected subcutaneously to the right scapula of each BALB/c nude mouse (6 to 8 week-old, SPF grade, female).
2) 7 days after cell inoculation, the diameter of the tumor was measured by caliper and the tumor volume was calculated according to the Formula: V=0.5a×b^2 (a is the longest diameter of the tumor, b is the shortest diameter of the tumor). […] Administration was via the tail vein injection, and the control group received an equal volume of the vehicle. […] The tumor volumes at each time point were calculated and compared between groups. At the same time, the T-C or T/C value was used as the index to evaluate the anti-tumor activity of each drug. T-C value is calculated as the follows: T is the average time (Days) when the average tumor volume of each treatment group reaches a preset size (500 mm^3), C is the average time (Day) when the average tumor volume of the controlled group reaches the preset size (500 mm^3). While T/C (percentage) is the index for tumor inhibition effect, T is the average tumor volume of all the drug treatment groups at a fixed time point, and C is the average tumor volume of the control group at the fixed time point.

`COc1cc2cc(c1Cl)N(C)C(=O)C[C@H](OC(=O)[C@H](C)N(C)C(=O)CCS)[C@]1(C)O[C@H]1[C@H](C)[C@@H]1C[C@@](O)(NC(=O)O1)[C@H](OC)/C=C/C=C(\C)C2` [DM1] gave an IC50 [1] of 4.22 nM, an IC50 [2] of 2.9 nM and an IC50 [3] of 1.59 nM. For the same molecule, the IC50 [4] was 7.18 nM, the “inhibition effect on proliferation (in words)” value (from here on “inhibition effect”) [5] was “significant inhibition effect” and the IC50 [6] was 16.3 nM. For the same molecule, the IC50 [7] was 5.71 nM, the “inhibition effect” value [8] was “significant inhibition effect” and the IC50 [9] was 1.92 nM.
For ado-trastuzumab emtansine [Kadcyla], the IC50 [2] was 0.049 nM, the IC50 [3] was 0.049 nM and the “inhibition on ErbB2/Her2 positive breast cancer (in words)” value [10] was “significant inhibition”. For the same molecule, the “tumor volumes compared with control group” value ([10]; 10 days after administration) was “significantly smaller than control group”, the “Tumor Size at day 31 (Mean ± SEM)” value ([10]; single tail vein injection, n=10) was 29 ± 4 mm^3 and the tumor regrowth ([10]; until 38 days after the administration) was “No sign of tumor regrowth”. For the same molecule, the “T-C at 500 mm^3” value ([10]; time to reach 500 mm^3, treated minus control) was greater than 17 days, the T/C ([10]; treated / control average tumor volume) was 1.3% and the IC50 [4] was 0.031 nM. For the same molecule, the IC50 [6] was 0.144 nM, the “inhibition effect” value [8] was “only inhibits the proliferation of cells with low ErbB2/Her2 expression at high concentrations” and the IC50 [9] was 0.03 nM.
